From ChEMBL document CHEMBL3124779, “Discovery of ABT-267, a pan-genotypic inhibitor of HCV NS5A” (J Med Chem, 2014) come the findings set out here.

Assay [1] relates to Hepatitis C virus. The assay is described as follows: Ratio of EC50 for HCV1b Con1 infected in human HuH7 cells in presence of 40% human plasma to EC50 for HCV1b Con1 infected in human HuH7 cells in absence of 40% human plasma. Format: functional, Hepacivirus hominis, isolate Con1, Huh-7.
The test system of assay [2] is Hepatitis C virus. The assay is described as follows: Ratio of EC50 for HCV1a H77 infected in human HuH7 cells in presence of 40% human plasma to EC50 for HCV1a H77 infected in human HuH7 cells in absence of 40% human plasma. The assay is classed as functional, Hepacivirus hominis, genotype 1a H77, Huh-7.
Assay [3] relates to Hepatitis C virus. The experiment in a line: Antiviral activity against HCV1b Con1 infected in human HuH7 cells assessed as inhibition of viral replication after 4 days by luciferase reporter gene assay in presence of 40% human plasma. The assay is classed as functional, organism-based, Hepacivirus hominis. Conditions: isolate Con1, Huh-7, Plasma, 96 h. For orientation: In a reporter assay the amount or activity of a reporter protein is the signal.

Assay [4] concerns Hepatitis C virus. The assay is described as follows: Antiviral activity against HCV1a H77 infected in human HuH7 cells assessed as inhibition of viral replication after 4 days by luciferase reporter gene assay in presence of 40% human plasma. The assay is classed as functional, organism-based, Hepacivirus hominis. As to conditions: genotype 1a H77, Huh-7, Plasma, 96 h.
For assay [5], the system named is Hepatitis C virus. The assay is described as follows: Antiviral activity against HCV1a H77 infected in human HuH7 cells assessed as inhibition of viral replication after 4 days by luciferase reporter gene assay. As to conditions: genotype 1a H77, Huh-7, 96 h. Format: functional, organism-based, Hepacivirus hominis.
Assay [6] deals with Hepatitis C virus. The experiment in a line: Antiviral activity against HCV1b Con1 infected in human HuH7 cells assessed as inhibition of viral replication after 4 days by luciferase reporter gene assay. The assay is classed as functional, organism-based, Hepacivirus hominis. Conditions: isolate Con1, Huh-7, 96 h.

As for `COC(=O)N[C@H](C(=O)N1CCC[C@H]1C(=O)Nc1ccc([C@H]2CC[C@@H](c3ccc(NC(=O)[C@@H]4CCCN4C(=O)[C@@H](NC(=O)OC)C(C)(C)C)cc3)N2c2ccc(F)cc2)cc1)C(C)(C)C`, the “Ratio EC50” value was 9 in assay [1] and 17 in assay [2]. In addition, the concentration giving a half-maximal response (EC50) (as a rule, the concentration at which the effect is half-maximal) in assay [3] was 0.278 nM; in assay [4], 103 nM; in assay [5] it was 6.22 nM; in assay [6], 0.032 nM.

In the case of `COC(=O)N[C@H](C(=O)N1CCC[C@H]1C(=O)Nc1ccc([C@@H]2CC[C@@H](c3ccc(NC(=O)[C@@H]4CCCN4C(=O)[C@@H](NC(=O)OC)C(C)(C)C)cc3)N2c2ccc(C(F)(F)F)cc2)cc1)C(C)(C)C`, the figures for the “Ratio EC50” value in assay [1] and in assay [2] were 24 and 42, respectively. Moreover, the concentration giving a half-maximal response (EC50) was 0.211 nM in assay [3], 4.14 nM in assay [4], 0.099 nM in assay [5] and 0.0088 nM in assay [6].

Consider `COC(=O)N[C@H](C(=O)N1CCC[C@H]1C(=O)Nc1ccc([C@H]2CC[C@H](c3ccc(NC(=O)[C@@H]4CCCN4C(=O)[C@@H](NC(=O)OC)C(C)(C)C)cc3)N2c2ccc(C(F)(F)F)cc2)cc1)C(C)(C)C`, for which the “Ratio EC50” value in assay [1] and in assay [2] was 17 in each case. For the same molecule, the EC50 in assay [3] is 0.184 nM; in assay [4], 14.3 nM; in assay [5], 0.829 nM; in assay [6], 0.011 nM.

`COC(=O)N[C@H](C(=O)N1CCC[C@H]1C(=O)Nc1ccc([C@H]2CC[C@H](c3ccc(NC(=O)[C@@H]4CCCN4C(=O)[C@@H](NC(=O)OC)C(C)C)cc3)N2c2ccc(C3CC3)cc2)cc1)C(C)C`: the “Ratio EC50” value in assay [1] turned out to be 13; in assay [2], 10. Further, the EC50 is 0.114 nM in assay [3], 1.68 nM in assay [4], 0.164 nM in assay [5] and 0.0087 nM in assay [6].

On to `COC(=O)N[C@H](C(=O)N1CCC[C@H]1C(=O)Nc1ccc([C@@H]2CC[C@@H](c3ccc(NC(=O)[C@@H]4CCCN4C(=O)[C@@H](NC(=O)OC)C(C)C)cc3)N2c2ccc(C(C)(C)CO)cc2)cc1)C(C)C`, for which the figures for the “Ratio EC50” value in assay [1] and in assay [2] were 10 and 13, respectively. In addition, the half-maximal effective concentration (EC50) in assay [3] is 0.948 nM; in assay [4], 1.47 nM; in assay [5] it was 0.116 nM; in assay [6], 0.095 nM.

Take `COC(=O)N[C@H](C(=O)N1CCC[C@H]1C(=O)Nc1ccc([C@H]2CC[C@H](c3ccc(NC(=O)[C@@H]4CCCN4C(=O)[C@@H](NC(=O)OC)C(C)(C)C)cc3)N2c2ccc(S(C)(=O)=O)cc2)cc1)C(C)(C)C`: the “Ratio EC50” value was 15 in assay [1] and 42 in assay [2]. The half-maximal effective concentration (EC50) turned out to be 3.42 nM in assay [3], 27.6 nM in assay [4], 0.659 nM in assay [5] and 0.226 nM in assay [6].

As for `COC(=O)N[C@H](C(=O)N1CCC[C@H]1C(=O)Nc1ccc([C@@H]2CC[C@@H](c3ccc(NC(=O)[C@@H]4CCCN4C(=O)[C@@H](NC(=O)OC)C(C)C)cc3)N2c2ccc(-c3cccnc3)cc2)cc1)C(C)C`, the entries for the “Ratio EC50” value in assay [1] and in assay [2] were 9 and 18, respectively. Also, the half-maximal effective concentration (EC50) stood at 0.597 nM in assay [3], 2.57 nM in assay [4], 0.143 nM in assay [5] and 0.069 nM in assay [6].

As for `COC(=O)N[C@H](C(=O)N1CCC[C@H]1C(=O)Nc1ccc(CN(Cc2ccc(NC(=O)[C@@H]3CCCN3C(=O)[C@@H](NC(=O)OC)C(C)C)cc2)c2ccc(F)cc2)cc1)C(C)C`, the EC50 stood at 38 nM in assay [5] and 0.4 nM in assay [6].

Turning to `COC(=O)N[C@H](C(=O)N1CCC[C@H]1C(=O)Nc1ccc([C@@H]2CC[C@@H](c3ccc(NC(=O)[C@@H]4CCCN4C(=O)[C@@H](NC(=O)OC)C(C)C)cc3)N2)cc1)C(C)C`, the EC50 was 253 nM in assay [5] and 282 nM in assay [6].
